Experimental data published in patent US20040044032A1, “Farnesyl protein transfer inhibitors for the treatment of inflammatory bowel disease” (priority 2003, published 2004).
Like-named read-outs stand apart in the source and are kept apart here.

Tests used:
[1] = test system: DSS-induced colitis in mice; assay: Prevention of DSS-induced colitis in mice, repeat study with lower PO doses in 0.1 N HCl; assay type: in vivo; settings: for weight DAY 0: Day 0 (baseline); for % Inh. Colonic Shortening / % of Normal Length Shortening / DAI mean ± SEM / DAINWT mean ± SEM / Mean Colon Length Cm ± SEM: 5% DSS days 0-7
Description: (§1) All mice were weighed daily and observed for signs of gross toxicity and behavioural changes, consistency of stool and presence of gross blood during the study. On Day 7, all animals were euthanized by CO2 inhalation and necropsied. Following euthanasia, a stool sample was obtained from the colon of each animal and tested for occult blood (Quik-Cult, Laboratory Diagnostics Co., Morganville, N.J.). The colons were then removed and the length from the colo-cecal junction to the end of the distal rectum was measured. A segment of colon was collected from each animal and preserved in 10% formalin.
(§2) For each group, the disease activity index (DAI) was determined by evaluating changes in weight, Hemoccult positivity or gross bleeding and stool consistency using the following system.
(§3) Data was analyzed using analysis of variance (single factor). Statistically methods included the Mann-Whitney test, ANOVA and Turkey-Kramer Multiple Comparisons test.
(§4) Statistical significance between test and control groups was established at a probability of p<0.05.
In view of the above results the experiment was repeated with lower doses of compound 75. The above procedure was followed with the following groups
Individual doses were calculated based on daily body weights. Prior to administration, 50 mg of Compound 75 was diluted with 10 milliliters of 0.1N HCl (50 mg/kg for Group 5). The resulting solution was then further diluted twice, with 5 ml increments and used for the 25 (Group 4) and 12.5 (Group 3) mg/kg dose levels. The 0.1 N HCl was used for Groups 1 and 2 and constituted the vehicle control. Groups 2 through 5 were given a 5% w/w solution of dextran sulfate sodium (DSS) in distilled water substituted for their normal water supply (approximately 10 ml:mouse/day) from Days 0 through 7. Each group of animals received the appropriate amount of the test substance, as described above, by intubation using a stainless steel ball-tipped gavage needle attached to an appropriate syringe.

[2] = test system: DSS-induced colitis in mice; assay type: in vivo; settings: for Mean Weight (±SEM) DAY 0: Day 0 (baseline); for Mean Colon Length Cm ± SEM: necropsy Day 7; for deaths: 10 mice/group
Description: The purpose of this study was to identify, characterize and document the preventative actions of compound 75 above, namely (+)-6-[amino(4-chlorophenyl) (1-methyl-1H-imidazol-5-yl)methyl]-4-(3-chlorophenyl)-1-methyl-2(1H)-quinolinone, a compound of formulae (I), in an experimental model of inflammatory bowel disease in mice.
A group of female Swiss-Webster mice was received from Ace Animals, Inc., Boyertown, Pa. The animals were grouped housed (5 mice/cage) in plastic cages with water absorbent bedding. […] The animals were fed Purina Rodent Chow #5012 and filtered tap water was supplied ad libitum by automatic watering system (during acclimation).
Following an acclimation period of 9 days, 40 healthy mice were selected for this study. The test animals were distributed (10 mice/group) into each one of the 4 test groups described below. There were no statistical significant differences between the mean group body weights.
Individual doses were calculated based on daily body weights. Prior to administration, Compound 75 was mixed with the vehicle (Beta cyclodextrin (40%) in 0.1 N HCL). This mixture was further diluted with 0.1 N HCL. The resulting mixture was then used to prepare the dilutions for groups 3 and 4. A 20% solution of Beta cyclodextrin in 0.1 N HCL was used for Groups 1 and 2 and constituted the vehicle control. Groups 2 through 4 were given a 5% w/w solution of dextran sulfate sodium (DSS) in distilled water substituted for their normal water supply (approximately 10 ml/mouse/day) from Days 0 through 6. Each group of animals received the appropriate amount of the test substance, as described above, by intubation using a stainless steel ball-tipped gavage needle attached to an appropriate syringe.
as §1, §2, §3, §4

[3] = 25 mg/kg PO bid days 0-6, 5% DSS
[4] = 50 mg/kg PO bid days 0-6, 5% DSS

Cn1cncc1C(N)(c1ccc(Cl)cc1)c1ccc2c(c1)c(-c1cccc(Cl)c1)cc(=O)n2C (single isomer, unassigned; (+)) [Compound 75, (+)-6-[amino(4-chlorophenyl)(1-methyl-1H-imidazol-5-yl)methyl]-4-(3-chlorophenyl)-1-methyl-2(1H)-quinolinone]
weight DAY 0 ([1]; 12.5 mg/kg PO + DSS): 23.6 ± 0.3 | % change (weight) DAY 5 ([1]; 12.5 mg/kg PO + DSS): +1.3 ± 1.0% | weight DAY 5 ([1]; 12.5 mg/kg PO + DSS): 23.9 ± 0.4 | % change (weight) DAY 6 ([1]; 12.5 mg/kg PO + DSS): 0.0 ± 1.0% | weight DAY 6 ([1]; 12.5 mg/kg PO + DSS): 23.6 ± 0.4 | % change (weight) DAY 7 ([1]; 12.5 mg/kg PO + DSS): +1.3 ± 1.0% | weight DAY 7 ([1]; 12.5 mg/kg PO + DSS): 23.9 ± 0.4 | % Inh. Colonic Shortening ([1]; 12.5 mg/kg PO daily): 65% | % of Normal Length Shortening ([1]; 12.5 mg/kg PO daily): 89.6% | DAI mean ± SEM ([1]; 12.5 mg/kg PO daily): 1.57 ± 0.17 | DAINWT mean ± SEM ([1]; 12.5 mg/kg PO daily): 2.25 ± 0.25 | Mean Colon Length Cm ± SEM ([1]; 12.5 mg/kg PO daily): 10.0 ± 0.1 Cm | weight DAY 0 ([1]; 25 mg/kg PO + DSS): 24.2 ± 0.4 | weight DAY 5 ([1]; 25 mg/kg PO + DSS): 24.7 ± 0.6 | % change (weight) DAY 6 ([1]; 25 mg/kg PO + DSS): −1.2 ± 1.0% | weight DAY 6 ([1]; 25 mg/kg PO + DSS): 23.9 ± 0.5 | % change (weight) DAY 7 ([1]; 25 mg/kg PO + DSS): +2.9 ± 1.0% | weight DAY 7 ([1]; 25 mg/kg PO + DSS): 24.9 ± 0.5 | % Inh. Colonic Shortening ([1]; 25 mg/kg PO): 58% | % of Normal Length Shortening ([1]; 25 mg/kg PO): 88.7% | DAI mean ± SEM ([1]; 25 mg/kg PO): 1.53 ± 0.17 | DAINWT mean ± SEM ([1]; 25 mg/kg PO): 2.30 ± 0.25 | Mean Colon Length Cm ± SEM ([1]; 25 mg/kg PO): 9.9 ± 0.3 Cm | weight DAY 0 ([1]; 50 mg/kg PO + DSS): 23.9 ± 0.3 | % change (weight) DAY 5 ([1]; 50 mg/kg PO + DSS): −0.7 ± 1.0% | weight DAY 5 ([1]; 50 mg/kg PO + DSS): 23.9 ± 0.3 | % change (weight) DAY 6 ([1]; 50 mg/kg PO + DSS): −1.6 ± 1.0% | weight DAY 6 ([1]; 50 mg/kg PO + DSS): 23.5 ± 0.3 | % change (weight) DAY 7 ([1]; 50 mg/kg PO + DSS): −0.3 ± 2.0% | weight DAY 7 ([1]; 50 mg/kg PO + DSS): 23.8 ± 0.3 | % Inh. Colonic Shortening ([1]; 50 mg/kg PO): 52% | % of Normal Length Shortening ([1]; 50 mg/kg PO): 87.0% | DAI mean ± SEM ([1]; 50 mg/kg PO): 1.70 ± 0.18 | DAINWT mean ± SEM ([1]; 50 mg/kg PO): 2.30 ± 0.24 | Mean Colon Length Cm ± SEM ([1]; 50 mg/kg PO): 9.7 ± 0.2 Cm | deaths during the duration of the experiment ([1]; 12.5, 25, 50 mg/kg PO): No deaths | dose of maximal effectiveness on prevention of colonic shortening ([1]; PO daily, lowest dose tested): 12.5 mg/kg | protection based on DAI and DAINWT ([1]; all doses (12.5, 25, 50 mg/kg PO)): statistically significant protection | Mean Weight (±SEM) DAY 0 ([2]; 25 mg/kg PO bid + DSS): 25.1 ± 0.5 grams | % weight change (±SEM) DAY 5 ([2]; 25 mg/kg PO bid + DSS): −8.3 ± 1.5% | Mean Weight (±SEM) DAY 5 ([2]; 25 mg/kg PO bid + DSS): 23.0 ± 0.5 grams | % weight change (±SEM) DAY 6 ([2]; 25 mg/kg PO bid + DSS): −8.7 ± 2.7% | Mean Weight (±SEM) DAY 6 ([2]; 25 mg/kg PO bid + DSS): 22.9 ± 0.7 grams | % weight change (±SEM) DAY 7 ([2]; 25 mg/kg PO bid + DSS): −9.6 ± 3.5% | Mean Weight (±SEM) DAY 7 ([2]; 25 mg/kg PO bid + DSS): 22.7 ± 0.9 grams | % of Normal Length Shortening [2, 3]: 82.0% | Blood in Feces (%) [2, 3]: 0% | DAI mean ± SEM [2, 3]: 1.70 ± 0.26 | DAINWT Mean ± SEM (DAI without body weight parameter) [2, 3]: 1.50 ± 0.22 | Mean Colon Length Cm ± SEM [2, 3]: 9.7 ± 0.3 Cm | deaths ([2]; 25 mg/kg dose): 1 | Mean Weight (±SEM) DAY 0 ([2]; 50 mg/kg PO bid + DSS): 25.6 ± 0.5 grams | % weight change (±SEM) DAY 5 ([2]; 50 mg/kg PO bid + DSS): −9.5 ± 1.3% | Mean Weight (±SEM) DAY 5 ([2]; 50 mg/kg PO bid + DSS): 23.1 ± 0.5 grams | % weight change (±SEM) DAY 6 ([2]; 50 mg/kg PO bid + DSS): −8.8 ± 2.2% | Mean Weight (±SEM) DAY 6 ([2]; 50 mg/kg PO bid + DSS): 23.3 ± 0.8 grams | % weight change (±SEM) DAY 7 ([2]; 50 mg/kg PO bid + DSS): −9.2 ± 1.9% | Mean Weight (±SEM) DAY 7 ([2]; 50 mg/kg PO bid + DSS): 23.2 ± 0.7 grams | % of Normal Length Shortening [2, 4]: 77.9% | Blood in Feces (%) [2, 4]: 22% | DAI mean ± SEM [2, 4]: 2.11 ± 0.25 | DAINWT Mean ± SEM (DAI without body weight parameter) [2, 4]: 2.06 ± 0.28 | Mean Colon Length Cm ± SEM [2, 4]: 9.2 ± 0.1 Cm | deaths ([2]; 50 mg/kg dose): 1 | prevention of colitis produced by 5% Dextran Sulfate Sodium ([2]; PO bid, 5% DSS): significant activity | protection against weight loss ([2]; any dose (25 and 50 mg/kg PO bid)): No significant protection | shortening of the colon produced by DSS ([2]; dose levels of 25 and 50 mg/kg PO bid): prevented
